From ChEMBL document CHEMBL5137095, “N-Benzyl Benzamide Derivatives as Selective Sub-Nanomolar Butyrylcholinesterase Inhibitors for Possible Treatment in Advanced Alzheimer's Disease” (J Med Chem, 2022) come the findings set out here.

As usually defined, the IC50 is the concentration needed to halve the response being measured. As usually defined, the Ki is the equilibrium dissociation constant of an inhibitor or competing ligand from its target. For orientation: Kd means the constant that tells how readily two partners part at equilibrium. Usually logP stands for a log measure of how a compound divides between an organic and an aqueous phase. A high value points to higher lipophilicity.

Data set [1] has as its target Cholinesterase (Equus caballus, UniProt P81908). Kind of data set: Inhibition of horse serum BChE using acetylthiocholine iodide or butyrylthiocholine iodide as substrate preincubated for 5 mins followed by substrate addition by Ellman's method. Background: Ellman's reagent forms a yellow product with free thiols.
The target in data set [2] is T1, Cholinesterase (Homo sapiens, UniProt P06276). The experiment in a line: Inhibition of human BChE using acetylthiocholine iodide or butyrylthiocholine iodide as substrate preincubated for 5 mins followed by substrate addition by Ellman's method.
Data set [3] concerns the target T1, Cholinesterase. The experiment in a line: Inhibition of human BChE assessed as inhibition constant.
Data set [4] deals with T1, Cholinesterase. The experiment in a line: Binding affinity to human BChE assessed as dissociation constant by surface plasmon resonance assay.
Data set [5] in a line: n-octanol-water partition coefficient, log P of the compound by HPLC analysis. The data set is classed as physicochemical.
Data set [6] can be described thus: Permeability of compound incubated for 18 hrs by PAMPA-BBB assay. The format is ADME. Particulars: read-out: permeability. A general note: PAMPA measures passive passage across an artificial lipid membrane.
The nature of data set [7]: Acute toxicity in ICR mouse assessed as abnormal behavior at 1000 mg/kg, po measured after 4 hrs. The format is organism-based. Particulars: in vivo.
A short description of data set [8]: Acute toxicity in ICR mouse assessed as effect on consumption of water and food at 1000 mg/kg, po measured after 14 days. The data set is classed as organism-based. The settings on record: in vivo, 336 h, time 14 day.
The nature of data set [9]: Acute toxicity in ICR mouse assessed as increase in body weight at 1000 mg/kg, po measured after 14 days. The data set is classed as organism-based. Particulars: in vivo, 336 h, time 14 day.
In data set [10] the test system is BV-2. The experiment in a line: Cytotoxicity against mouse BV-2 cells assessed as reduction in cell viability at 10 uM by MTT assay. The data set is classed as toxicity, cell-based. The settings on record: bv-2, 10 µM. For orientation: Formazan colour is commonly taken as a measure of viable cells.
Data set [11] concerns HT-22. Kind of data set: Cytotoxicity against mouse HT-22 cells assessed as reduction in cell viability at 10 uM by MTT assay. The data set is classed as toxicity, cell-based. Particulars: ht-22, 10 µM.
For data set [12], the system named is PC-12. Kind of data set: Cytotoxicity against rat PC-12 cells assessed as reduction in cell viability at 10 uM by MTT assay. The settings on record: pc-12, 10 µM. The data set is classed as toxicity, cell-based.
In data set [13] the test system is SH-SY5Y. Kind of data set: Cytotoxicity against human SH-SY5Y cells assessed as reduction in cell viability at 10 uM by MTT assay. The data set is classed as toxicity, cell-based.
Data set [14] can be described thus: Cytotoxicity against mouse BV-2 cells assessed as cell survival rate at 10 uM by MTT assay. The format is toxicity, cell-based. Particulars: read-out: Activity.
Data set [15] can be described thus: Cytotoxicity against mouse HT-22 cells assessed as cell survival rate at 10 uM by MTT assay. The format is toxicity, cell-based. The settings on record: read-out: Activity.
The nature of data set [16]: Cytotoxicity against rat PC-12 cells assessed as cell survival rate at 10 uM by MTT assay. The data set is classed as toxicity, cell-based. The settings on record: read-out: Activity.
A short description of data set [17]: Cytotoxicity against human SH-SY5Y cells assessed as cell survival rate at 10 uM by MTT assay. The format is toxicity, cell-based. Particulars: read-out: Activity.

T1 sequence (P06276 whole entry): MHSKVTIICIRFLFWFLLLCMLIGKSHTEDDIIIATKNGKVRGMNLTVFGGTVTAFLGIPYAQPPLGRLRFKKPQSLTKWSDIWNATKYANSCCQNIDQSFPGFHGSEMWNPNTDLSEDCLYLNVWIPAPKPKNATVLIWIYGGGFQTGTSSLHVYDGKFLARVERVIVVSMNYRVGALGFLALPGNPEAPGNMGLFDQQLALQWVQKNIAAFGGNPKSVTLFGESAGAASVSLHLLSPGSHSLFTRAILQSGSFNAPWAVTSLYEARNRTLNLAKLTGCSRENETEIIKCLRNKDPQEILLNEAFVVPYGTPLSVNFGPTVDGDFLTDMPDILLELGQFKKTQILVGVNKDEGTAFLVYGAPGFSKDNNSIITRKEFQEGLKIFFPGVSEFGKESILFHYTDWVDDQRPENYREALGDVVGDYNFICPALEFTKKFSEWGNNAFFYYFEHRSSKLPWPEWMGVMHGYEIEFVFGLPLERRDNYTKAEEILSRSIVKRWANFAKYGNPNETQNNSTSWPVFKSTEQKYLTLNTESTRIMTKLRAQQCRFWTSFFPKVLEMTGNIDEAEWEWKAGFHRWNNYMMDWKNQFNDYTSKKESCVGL
Cholinesterase (Equus caballus, UniProt P81908), sequence (P81908 whole entry): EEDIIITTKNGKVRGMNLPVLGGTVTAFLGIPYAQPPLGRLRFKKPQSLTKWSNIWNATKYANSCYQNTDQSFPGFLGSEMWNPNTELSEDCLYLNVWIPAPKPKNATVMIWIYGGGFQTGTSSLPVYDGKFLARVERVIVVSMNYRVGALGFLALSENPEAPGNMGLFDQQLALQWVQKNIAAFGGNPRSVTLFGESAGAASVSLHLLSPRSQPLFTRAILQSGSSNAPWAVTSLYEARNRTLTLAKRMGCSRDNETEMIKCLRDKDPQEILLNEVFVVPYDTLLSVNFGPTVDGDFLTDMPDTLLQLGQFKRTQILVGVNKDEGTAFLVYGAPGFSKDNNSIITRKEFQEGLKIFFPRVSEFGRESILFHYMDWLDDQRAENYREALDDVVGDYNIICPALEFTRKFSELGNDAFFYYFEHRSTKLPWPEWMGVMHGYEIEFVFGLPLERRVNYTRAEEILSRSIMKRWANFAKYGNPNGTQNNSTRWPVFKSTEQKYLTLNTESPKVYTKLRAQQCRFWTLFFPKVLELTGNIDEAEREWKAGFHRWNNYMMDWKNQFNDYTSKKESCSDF

As to `CCN(CC)Cc1ccccc1CNC(=O)c1cc(C)cc(NC(=O)c2ccc(F)cc2)c1`, the IC50 in [1] worked out at 21 pM; in data set [2], 39 pM. Also, in data set [3], the Ki is 94 pM. Also, in data set [4], the dissociation constant Kd is 64 pM. In addition, the logP in [5] amounted to 1.26. Also, the Papp at 18 h in data set [6] was 9.17 ×10⁻⁶ cm/s. Moreover, the Activity entry in data set [7], in data set [8] and in data set [9] was “Non-Toxic” in each case.

For the molecule `CCN(CC)Cc1ccccc1CNC(=O)c1cc(Cl)cc(NC(=O)c2ccc(F)cc2)c1`, the Activity result in [10], in data set [11], in data set [12] and in data set [13] was “Non-Toxic” in each case. The IC50 stood at 160 pM in [1] and 220 pM in [2]. Also, the logP in data set [5] was 1.11. For the same molecule, the Papp at 18 h in [6] was found to be 7.54 ×10⁻⁶ cm/s. Also, the viability at 10 µM in data set [14], in [15], in data set [16] and in data set [17] was greater than 70% in each case.

For `Cc1ccc2c(c1)sc(-c1ccc(N(C)C)cc1)[n+]2C` [THIOFLAVIN T], the Ki in data set [3] is 800000 pM.

Regarding `CCN(CC)Cc1ccccc1CNC(=O)c1cccc(NC(=O)c2cccs2)c1`, the Activity entry in data set [10], in data set [11], in data set [12] and in [13] was “Non-Toxic” throughout. In addition, the IC50 in [2] is 350 pM. Besides, the logP in data set [5] turned out to be 2.11. For the same molecule, in data set [6], the Papp at 18 h stood at 19 ×10⁻⁶ cm/s. Moreover, the viability at 10 µM in [14], in data set [15], in data set [16] and in [17] was greater than 70% each time.
